In one series the target is T1, PPARα (Homo sapiens, UniProt Q07869).
T1 construct: expressed in transfected cells; host or cells: human SK-Hep1 cells
T1 sequence (Q07869 1-468): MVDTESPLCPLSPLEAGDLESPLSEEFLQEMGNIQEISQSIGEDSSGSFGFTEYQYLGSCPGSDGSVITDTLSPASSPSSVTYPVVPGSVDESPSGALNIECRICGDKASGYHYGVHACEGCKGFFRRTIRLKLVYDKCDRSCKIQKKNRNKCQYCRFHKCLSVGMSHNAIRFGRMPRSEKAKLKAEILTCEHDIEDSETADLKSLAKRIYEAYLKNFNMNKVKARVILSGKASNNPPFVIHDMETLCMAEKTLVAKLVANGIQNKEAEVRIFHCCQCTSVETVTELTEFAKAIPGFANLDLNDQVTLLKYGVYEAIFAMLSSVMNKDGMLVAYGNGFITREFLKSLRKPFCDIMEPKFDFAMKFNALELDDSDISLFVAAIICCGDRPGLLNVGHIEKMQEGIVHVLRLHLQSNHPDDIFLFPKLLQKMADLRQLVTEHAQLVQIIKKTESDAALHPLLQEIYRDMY
Nature of the series: PPARα luciferase reporter gene activation in SK-Hep1 cells cotransfected with PPARα expression vector. Type of series: cell-based. The conditions noted are these: for Fold Activation PPAR alpha, MEAN: mean of the two experiments in triplicate; for Fold Activation PPAR alpha: single values of triplicates, two experiments, relative to control; for balance of stimulation of PPAR-alpha and -gamma receptors: both receptors activated in the same concentration range. The text has this: Analysis of the activation of PPARα and PPARγ is based on the transfection of a DNA allowing the expression of a reporter gene (the gene of luciferase) under the control of the PPARs, either endogenous in the case of PPARγ or cotransfected in the case of PPARα. The reporter plasmid J3TkLuc comprises three copies of the response element for PPARs of the human apo A-II gene (Staels, B et al. (1995), J. Clin. Invest., 95, 705-712) which are cloned upstream of the promoter of the thymidine kinase gene of the herpes simplex virus in the plasmid pGL3. This reporter gene was obtained by subcloning, in the plasmid pGL3, the plasmid J3TkCAT described above (Fajas, L et al. (1997), J. Biol. Chem., 272, 18779-18789). […] These cells were inoculated at a density of 20,000 cells per well (96-well plates) and transfected with 150 ng of reporter DNA complexed with a mixture of lipids. In the case of the SK-Hep1 cells, an expression vector for PPARα, described by Sher, T. et al. (1993), Biochemistry, 32, 5598-5604, is cotransfected. After 5 hours, the cells are washed twice and incubated for 36 hours in the presence of the test compound in a fresh culture medium comprising 10% foetal calf serum. At the end of incubation, the cells are lysed and the luciferase activity is measured.

Series [1] concerns subjects of skin type 3 or 4. Nature of the series: Double blind clinical trial of skin whitening activity on forearms, versus placebo formulation. In kind it is in vivo, human. The conditions noted are these: oil-in-water emulsion with 1.0% Compound vs placebo, forearm, twice a day, 4½ weeks. How it is done:
Skin whitening activity was evaluated in a double blind clinical trial. As study medication a oil-in-water emulsion formulation containing 1.0% of the Compound, in comparison with the same formulation containing no active ingredient (placebo) was used.
The study was executed with subjects of skin type 3 or 4, aged from 18 to 50 years, whereby the active formulation was applied on one forearm twice a day and the placebo formulation on the other forearm for 4½ weeks. Assessment of whitening efficacy was performed on both forearms at day 0, 14 and 28 by visual assessment (examination of pigmentation differences), colorimetric measurements (using Chroma-Meter CR 300, Minolta resulting in L* values, expressing the changes in brightness, and ITA° values Individual Typology Angle expressing the melanin index) as well as digital photographs.

Series [2] is described as follows: Phototoxic and photo-allergenic potential (in house data).
A further series concerns B16-V melanoma cells. Nature of the series: Inhibition of melanin synthesis in B16-V melanoma cells (alpha-MSH stimulated). Type of series: cell-based. The conditions noted are these: 72 h, alpha-MSH stimulation. On the procedure:
DMSO is the solvent as negative and IBMX (3-Isobutyl-1-methylxantine) is our positive control. Kojic acid (KA) is the known reference ingredient for skin whitening.
B16-V melanoma cells were incubated for 72 h with assay medium containing different amounts of test substances. The concentration depends on the results of the MTT-Assay. Only concentrations without effect on viability (after 24 h incubation) were used for further melanin evaluation. Every 24 hours medium was changed and replaced by fresh assay medium containing the compounds and alpha-MSH (stimulation of melanin synthesis). The cell number was determined and the cells got lysed using 1M NaOH. Afterwards the amount of melanin was measured at 405 nm with a microplatereader (Safire2™, Tecan). Different concentrations of synthetic melanin were used to produce a calibration curve. Melanin content was expressed as pg/cell.

Series [3] in a line: Skin sensitization test (in house data).
The next series has as its system animal models. Nature of the series: Toxicity studies in animal models (in house data). The conditions noted are these: in vivo.
A short description of series [4]: Skin/eye irritation test (in house data).

Where “and” joins values, the source holds several entries; their conditions need not be identical. Identical values can stand only once.

Regarding `COc1ccc2c(c1)C(/C=C/C(C)=C/C(=O)O)=CC(C)(C)CO2` [Compound, 5-(7-methoxy-3,3-dimethyl-2,3-dihydro-1-benzoxepin-5-yl)-3-methyl-penta-2,4-dienoic acid], the “Fold Activation PPAR alpha, MEAN” value at PPARα (0.3 μm) is 1.4 fold; on PPARα (1 μm), 0.7 fold; on PPARα (3 μm) it was 0.8 fold; at PPARα (10 μm), 1.2 fold; at PPARα (30 μm) it was 4.9 fold; on PPARα (50 μm) it was 8.0 fold. Further, the “Fold Activation PPAR alpha, MEAN” value on PPARα (100 μm) is 6.9 fold. The “Fold Activation PPAR alpha” value at PPARα (0.3 μm) was 0.7 fold and 0.8 fold and 0.6 fold and 0.5 fold; on PPARα (3 μm), 0.6 fold and 0.7 fold and 1.0 fold and 1.1 fold and 0.8 fold. In addition, the “balance of stimulation of PPAR-alpha and -gamma receptors” value was “well-balanced stimulation” on PPARα and “balanced activity” on PPARα (listed as EMD 336340). Also, in series [1], the skin whitening activity entry is “extraordinary skin whitening activity”. For the same compound, in series [2], the phototoxicity entry was “no phototoxic”. For the same compound, the “melanin inhibiting activity (melanin content pg/cell, FIG. 1)” value with B16-V melanoma cells is reported as “superb melanin inhibiting activity”. The “melanin inhibiting activity compared with kojic acid (FIG. 1)” value in the series with B16-V melanoma cells is “significantly better than kojic acid”. The skin sensitization result in series [3] is on record as “no skin sensitization”. For the same compound, the “cell proliferation or apoptosis” value in the series with animal models is “no indication”. Also, the skin/eye irritation result in series [4] is recorded as “no skin/eye irritation”.

The values are drawn from patent US20140017187A1, “Use of 5-(7-methoxy-3,3-dimethyl-2,3-dihydro-1-benzoxepin-5-yl)-3-methyl-penta-2,4-dienoic acid as a cosmetic” (Merck Patent GmbH, priority 2008, published 2014).
